Test results: patent US20090246292A1, “ANTIMICROBIAL FORMULATIONS COMPRISING A QUINONE AND A COPPER SALT” (priority 2006, published 2009)
Read-outs that look alike come from different tables or passages of the source.

How the values were obtained:
S. aureus ATCC 29213 [1] = test: Synergy disc diffusion assay (SDDA), also supplemented;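 also: disc diffusion on Mueller-Hinton agar at pH 7.2, aerobic incubation at 37 °C lasting 19-20 h, two compounds assessed jointly for combined antimicrobial effect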
S. aureus ATCC 29213 [2] = test: Disc diffusion assay (DDA), also supplemented
Description: The staphylococci were cultured and maintained on Mueller-Hinton Medium (agar and broth) at pH 7.2; cultures were incubated aerobically at 37° C. for 19-20 hours.
(d) Disc Diffusion Assay (DDA)
A sterile paper disc was impregnated with a sample of the test compound in a suitable solvent and 30 minutes allowed for the solvents to evaporate (where possible). The disc was then placed on an agar plate onto which the test micro-organism had been inoculated. The plate was then incubated under the conditions described above, following which it was examined visually for signs of bacterial growth. […] The diameter of this zone of “inhibition” was measured using a ProtoCOL™ automated zone sizer (Synbiosis, Cambridge, UK).
(f) Supplemented Disc Diffusion Assays
For assays using S. aureus ATCC 29213 the supplements used were sodium chloride (100 mM), lipid (Tween™ 80 at 1% v/v) and horse serum (5% v/v).

P. acnes NCTC 737 [3] = test: Minimum bactericidal concentration (MBC) assay; assay type: cell-based, Propionibacterium acnes
Description: (§1) (b) Minimum Bactericidal Concentration (MBC) Assay
(§2) Following incubation they were examined visually for bacterial growth.

P. acnes NCTC 737 [4] = test: Disc diffusion assay (DDA), also supplemented;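 also: paper disc carrying compound placed on inoculated Wilkins-Chalgren Anaerobe agar pH 6.0, with lipid or NaCl supplement where listed, anaerobic 37 °C for 72 h, inhibition zone diameter read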
S. aureus ATCC 29213 [5] = test: Minimum inhibitory concentration (MIC) assay; assay type: cell-based, Staphylococcus aureus
Source text: (§3) (a) Minimum Inhibitory Concentration (MIC) Assay
(§4) The culture media were as described above.
(§5) The assays included both negative (culture medium with no micro-organisms) and positive (culture medium plus diluting solvent plus micro-organism) controls.

P. acnes NCTC 737 [6] = test: Minimum inhibitory concentration (MIC) assay; assay type: cell-based, Propionibacterium acnes
Source text: as §3, §4, §5

S. aureus ATCC 29213 [7] = test: Minimum bactericidal concentration (MBC) assay; assay type: cell-based, Staphylococcus aureus
Description: as §1, §2

P. acnes NCTC 737 [8] = test: Synergy disc diffusion assay (SDDA), also supplemented
[9] = copper salt + TBHQ on one disc, 200 μg of each (silicate 62 μg), salt and serum supplements
[10] = copper salt + TBHQ on one disc, 200 μg of each (silicate 62 μg), unsupplemented
[11] = copper salt + TBHQ vs larger zone of either compound alone, unsupplemented
[12] = copper salt + TBHQ, salt and serum supplements
[13] = copper salt + TBHQ, unsupplemented
[14] = copper salt alone, 200 μg per disc (silicate 62 μg), Tween 80 at 1% v/v
[15] = copper salt alone, 200 μg per disc (silicate 62 μg), salt and horse serum (5% v/v)
[16] = copper salt alone, 200 μg per disc (silicate 62 μg), sodium chloride (100 mM)
[17] = copper salt alone, P. acnes NCTC 737
[18] = copper salt alone, 200 μg per disc (silicate 62 μg), 1% (v/v) Tween 80
[19] = copper salt alone, 200 μg per disc (silicate 62 μg), salt and 1% (v/v) Tween 80
[20] = copper salt alone, S. aureus ATCC 29213
[21] = copper salt + TBHQ on one disc, 200 μg of each (silicate 62 μg), salt and lipid (1% (v/v) Tween 80)
[22] = copper salt + TBHQ, salt and lipid (1% (v/v) Tween 80)

## CC(=O)Oc1ccccc1C(=O)[O-].CC(=O)Oc1ccccc1C(=O)[O-].CC(=O)Oc1ccccc1C(=O)[O-].CC(=O)Oc1ccccc1C(=O)[O-].[Cu+2].[Cu+2] [Copper (II) aspirinate]
S. aureus ATCC 29213 [1]; [9]
  SS SDDA with TBHQ: 56.95 mm
S. aureus ATCC 29213 [1]; [10]
  SDDA with TBHQ: 69.05 mm
S. aureus ATCC 29213 [1]; [11]
  SDDA increase: 28.63 mm
S. aureus ATCC 29213 [1]; [12]
  SS SDDA area increase: 69.99%
  SS SDDA increase: 13.27 mm
S. aureus ATCC 29213 [1]; [13]
  SDDA area increase: 191.83%
S. aureus ATCC 29213 [2]
  DDA: 0 mm
S. aureus ATCC 29213 [2]; [14]
  DDA + lipid: 0 mm
S. aureus ATCC 29213 [2]; [15]
  DDA + salt & serum: 0 mm
S. aureus ATCC 29213 [2]; [16]
  DDA + salt: 0 mm
P. acnes NCTC 737 [3]; [17]
  MBC: 62.5 µg/mL
P. acnes NCTC 737 [4]
  DDA: 44.32 mm
P. acnes NCTC 737 [4]; [18]
  DDA + lipid: 36.19 mm
P. acnes NCTC 737 [4]; [19]
  DDA + salt & lipid: 47.45 mm
P. acnes NCTC 737 [4]; [16]
  DDA + salt: 40.21 mm
S. aureus ATCC 29213 [5]; [20]
  MIC: 125 µg/mL
  MIC/MBC ratio: <0.5
P. acnes NCTC 737 [6]; [17]
  MIC: 15.6 µg/mL
S. aureus ATCC 29213 [7]; [20]
  MBC: >250 µg/mL
P. acnes NCTC 737 [8]; [21]
  SL SDDA with TBHQ: 58.93 mm
P. acnes NCTC 737 [8]; [10]
  SDDA with TBHQ: 60.80 mm
P. acnes NCTC 737 [8]; [11]
  SDDA increase: 16.48 mm
P. acnes NCTC 737 [8]; [22]
  SL SDDA area increase: 54.20%
  SL SDDA increase: 11.47 mm
P. acnes NCTC 737 [8]; [13]
  SDDA area increase: 88.19%

## [Br][Cu][Br] [Copper (II) bromide]
S. aureus ATCC 29213 [1]; [9]
  SS SDDA with TBHQ: 44.42 mm
S. aureus ATCC 29213 [1]; [10]
  SDDA with TBHQ: 59.26 mm
S. aureus ATCC 29213 [1]; [11]
  SDDA increase: 18.84 mm
S. aureus ATCC 29213 [1]; [12]
  SS SDDA area increase: 3.42%
  SS SDDA increase: 0.74 mm
S. aureus ATCC 29213 [1]; [13]
  SDDA area increase: 114.95%
S. aureus ATCC 29213 [2]; [14]
  DDA + lipid: 0 mm
S. aureus ATCC 29213 [2]; [15]
  DDA + salt & serum: 0 mm
S. aureus ATCC 29213 [2]; [16]
  DDA + salt: 0 mm
P. acnes NCTC 737 [3]; [17]
  MBC: 62.5 µg/mL
P. acnes NCTC 737 [4]; [18]
  DDA + lipid: 42.37 mm
P. acnes NCTC 737 [4]; [19]
  DDA + salt & lipid: 49.23 mm
P. acnes NCTC 737 [4]; [16]
  DDA + salt: 47.94 mm
S. aureus ATCC 29213 [5]; [20]
  MIC: >250 µg/mL
P. acnes NCTC 737 [6]; [17]
  MIC: 7.8 µg/mL
  MIC/MBC ratio: 0.125
S. aureus ATCC 29213 [7]; [20]
  MBC: >250 µg/mL
P. acnes NCTC 737 [8]; [21]
  SL SDDA with TBHQ: 65.39 mm
P. acnes NCTC 737 [8]; [10]
  SDDA with TBHQ: 66.3 mm
P. acnes NCTC 737 [8]; [11]
  SDDA increase: 11.47 mm
P. acnes NCTC 737 [8]; [22]
  SL SDDA area increase: 76.46%
  SL SDDA increase: 16.17 mm
P. acnes NCTC 737 [8]; [13]
  SDDA area increase: 46.18%

## [Cl-].[Cu+2].[Cu+2].[OH-].[OH-].[OH-] [Copper (II) oxychloride]
S. aureus ATCC 29213 [1]; [9]
  SS SDDA with TBHQ: 43.89 mm
S. aureus ATCC 29213 [1]; [10]
  SDDA with TBHQ: 52.63 mm
S. aureus ATCC 29213 [1]; [11]
  SDDA increase: 12.21 mm
S. aureus ATCC 29213 [1]; [12]
  SS SDDA area increase: 0.96%
  SS SDDA increase: 0.21 mm
S. aureus ATCC 29213 [1]; [13]
  SDDA area increase: 69.54%
S. aureus ATCC 29213 [2]
  DDA: 0 mm
S. aureus ATCC 29213 [2]; [14]
  DDA + lipid: 0 mm
S. aureus ATCC 29213 [2]; [15]
  DDA + salt & serum: 0 mm
S. aureus ATCC 29213 [2]; [16]
  DDA + salt: 0 mm
P. acnes NCTC 737 [3]; [17]
  MBC: 15.6 µg/mL
P. acnes NCTC 737 [4]
  DDA: 51.21 mm
P. acnes NCTC 737 [4]; [18]
  DDA + lipid: 51.65 mm
P. acnes NCTC 737 [4]; [19]
  DDA + salt & lipid: 52.04 mm
P. acnes NCTC 737 [4]; [16]
  DDA + salt: 54.47 mm
S. aureus ATCC 29213 [5]; [20]
  MIC: >250 µg/mL
P. acnes NCTC 737 [6]; [17]
  MIC: 0.98 µg/mL
  MIC/MBC ratio: 0.06
S. aureus ATCC 29213 [7]; [20]
  MBC: >250 µg/mL
P. acnes NCTC 737 [8]; [21]
  SL SDDA with TBHQ: 54.02 mm
P. acnes NCTC 737 [8]; [10]
  SDDA with TBHQ: 59.45 mm
P. acnes NCTC 737 [8]; [11]
  SDDA increase: 8.24 mm
P. acnes NCTC 737 [8]; [22]
  SL SDDA area increase: 7.76%
  SL SDDA increase: 1.98 mm
P. acnes NCTC 737 [8]; [13]
  SDDA area increase: 34.77%

## On1ccccc1=S.On1ccccc1=S.[Cu] [Copper (II) pyrithione]
S. aureus ATCC 29213 [1]
  SDDA area increase: 150.13%
  SDDA increase: 19.29 mm
  SDDA with TBHQ: 52.45 mm
  SS SDDA area increase: 66.12%
  SS SDDA increase: 9.29 mm
  SS SDDA with TBHQ: 41.43 mm
S. aureus ATCC 29213 [2]
  DDA: 20.51 mm
  DDA + lipid: 15.25 mm
  DDA + salt: 21.48 mm
  DDA + salt & serum: 17.86 mm
P. acnes NCTC 737 [3]
  MBC: 0.49 µg/mL
P. acnes NCTC 737 [4]
  DDA: 56.42 mm
  DDA + lipid: 22.38 mm
  DDA + salt: 43.21 mm
  DDA + salt & lipid: 33.37 mm
S. aureus ATCC 29213 [5]
  MIC: 0.49 µg/mL
  MIC/MBC ratio: 1
P. acnes NCTC 737 [6]
  MIC: 0.24 µg/mL
  MIC/MBC ratio: 0.5
S. aureus ATCC 29213 [7]
  MBC: 0.49 µg/mL
P. acnes NCTC 737 [8]
  SDDA area increase: 18.55%
  SDDA increase: 5.01 mm
  SDDA with TBHQ: 61.43 mm
  SL SDDA area increase: 7.64%
  SL SDDA increase: 1.25 mm
  SL SDDA with TBHQ: 34.63 mm
